Read-outs that look alike come from different tables or passages of the source.
Columns and labels:
HCV = conditions: cited from earlier work
PI3P = type: cell-based
in vitro [1] = conditions: human
in vitro [2] = conditions: human; remark: listed apart in the source
SARS-CoV-2 [3] = assay: microbe, parasite or virus in culture; conditions: Severe acute respiratory syndrome coronavirus 2, A549-ACE2, read-out: EC50, SARS-CoV-2
SARS-CoV-2 [4] = assay: qRT-PCR-based SARS-CoV-2 replication assay in Calu-3 cells; type: cell-based
PI4P = type: cell-based; conditions: Huh7-Lunet/T7 cells expressing HCV NS3-5B, 1 µM for 2 h
HCV reporter virus JcR2a = type: cell-based, hepatitis C virus; conditions: HCV infection system, Huh7-derived cells expressing CD81
[5] = tested on: HA-nsp3-4-V5-induced DMVs; type: cell-based
SARS-CoV-2 [6] = tested on: SARS-CoV-2
in vitro [7] = conditions: human; remark: listed apart in the source

Cn1cnc(N)c2ncnc1-2 [3-methyladenine]
abundance of LC3-II in HCV-infected cells (HCV; PI3K inhibitor, ref Su et al., 2011): reduces

COC(=O)N[C@H](C(=O)N1CCC[C@H]1c1nc(-c2ccc(-c3ccc(-c4c[nH]c([C@@H]5CCCN5C(=O)[C@@H](NC(=O)OC)C(C)C)n4)cc3)cc2)c[nH]1)C(C)C [Daclatasvir]
number of GFP-DFCP1 puncta in NS3-5B-expressing cells (NS5A wildtype) (PI3P): blunted | reduction of GFP-DFCP1 abundance in cells expressing NS3-5B with NS5A Y93H (PI3P): not observed | CC50 (in vitro [1]): > 25 nM | CC50 (in vitro [2]): > 25 nM | DMV formation (HCV; NS5A inhibitor, ref Berger et al., 2014): block

Nc1ncc(-c2ccnc(Nc3ccncc3)n2)c(CC2CC2)n1 [PIK-III]
abundance of GFP-DFCP1 puncta in SARS-CoV-2-infected cells (PI3P): reduced | abundance of GFP-DFCP1 puncta in starved cells (PI3P): reduced to background levels | number of GFP-DFCP1 puncta in HCV-replicating cells (PI3P): diminished | EC50 (SARS-CoV-2 [3]): ~170 nM | SARS-CoV-2 replication efficiency (SARS-CoV-2 [4]): inhibition | cell viability in HCV NS3-5B-transfected cells (Huh7-Lunet/T7 cells): neither affected | cell viability in SARS-CoV-2 HA-nsp3-4-V5-transfected cells (Huh7-Lunet/T7 cells): did not affect | elevation of PI4P (PI4P puncta) (PI4P): no effect | selectivity index (ratio of EC50 and CC50) (HCV reporter virus JcR2a): > 10 | number of HA-nsp3-4-V5-induced DMVs [5]: significantly reduced | fold by which EC50 is below the CC50 value (SARS-CoV-2 [6]; A549/ACE2 cells): ≥ 250 fold | EC50 (SARS-CoV-2 [6]; read-out: EC50, SARS-CoV-2): 172 nM

CCC(CC)COC(=O)[C@H](C)N[P@](=O)(OC[C@H]1O[C@@](C#N)(c2ccc3c(N)ncnn23)[C@H](O)[C@@H]1O)Oc1ccccc1 [Remdesivir]
CC50 (in vitro [7]): > 10000 nM

COC[C@H]1OC(=O)c2coc3c2[C@@]1(C)C1=C(C3=O)[C@@H]2CCC(=O)[C@@]2(C)C[C@H]1OC(C)=O [wortmannin]
HCV replication (HCV; inhibition of PI3K activity, ref Mohl et al., 2016): impairs
